In ChEMBL document CHEMBL1121427, “Decomposition of pharmacological activity indices into mutually independent components using principal component analysis” (J Med Chem, 1980):

What was measured:
Aspergillus niger = test: The compound was evaluated for activity against Aspergillus niger; assay type: functional
Trichophyton benhamiae = test: The compound was evaluated for activity against Trichophyton mentagrophytes; assay type: functional, Arthroderma benhamiae
Aspergillus oryzae = test: The compound was evaluated for activity against Aspergillus oryzae; assay type: functional; parameters: unit not given here
Trichoderma viride = test: The compound was evaluated for activity against Trichoderma viride; assay type: functional; parameters: unit not given here
Albifimbria verrucaria = test: The compound was evaluated for activity against Myrothecium verrucaria; assay type: functional; parameters: unit not given here
Streptococcus pyogenes = test: The compound was evaluated for activity against strain Streptococcus hemolyticus; assay type: functional; parameters: unit not given here
Enterococcus faecalis = test: The compound was evaluated for activity against strain Streptococcus faecalis; assay type: functional; parameters: unit not given here
Bacillus subtilis = test: Inhibitory activity against Bacillus subtilis; assay type: functional; parameters: unit not given here
Staphylococcus aureus = test: The compound was evaluated for activity against strain Micrococcus aureus; assay type: functional; parameters: unit not given here
[1] = -Log C was determined by performing the pentylenetetrazole test; assay type: ADME; parameters: unit not given here
[2] = -Log C was determined by performing the electroshock minimum test; assay type: ADME; parameters: unit not given here
[3] = -Log C was determined by performing the foot shock test; assay type: ADME; parameters: unit not given here
[4] = -Log C was determined by performing the maximum electroshock test; assay type: ADME; parameters: unit not given here
[5] = -Log C was determined by performing the incl screen test; assay type: ADME; parameters: unit not given here

| SMILES | -Log C (Aspergillus niger) [mM l-1] | -Log C (Trichophyton benhamiae) [mM l-1] | -Log C (Aspergillus oryzae) | -Log C (Trichoderma viride) | -Log C (Albifimbria verrucaria) | further results |
| --- | --- | --- | --- | --- | --- | --- |
| O=[N+]([O-])c1cc(I)c2cccnc2c1O | 0.7 | 1.89 | 0.57 | 0.89 | 0.6 | – |
| O=[N+]([O-])c1cc(F)c2cccnc2c1O | 1.06 | 1.72 | 0.85 | 1.06 | 1.02 | – |
| Oc1c(Br)cc(Cl)c2cccnc12 | 1.92 | 2.11 | – | – | – | – |
| COC1/C=C/OC2(C)Oc3c(C)c(O)c4c(O)c(cc(OCC(=O)N(C)CCC#N)c4c3C2=O)NC(=O)/C(C)=C\C=C\C(C)C(O)C(C)C(O)C(C)C(OC(C)=O)C1C (stereo unspecified) | – | – | – | – | – | -Log C (Streptococcus pyogenes): 6.97; -Log C (Enterococcus faecalis): 6.05; -Log C (Bacillus subtilis): 5.74; -Log C (Staphylococcus aureus): 6.97 |
| COC1/C=C/OC2(C)Oc3c(C)c(O)c4c(O)c(cc(OCC(=O)N5C(C)COCC5C)c4c3C2=O)NC(=O)/C(C)=C\C=C\C(C)C(O)C(C)C(O)C(C)C(OC(C)=O)C1C (stereo unspecified) | – | – | – | – | – | -Log C (Streptococcus pyogenes): 7.76; -Log C (Enterococcus faecalis): 6.98; -Log C (Bacillus subtilis): 6.15; -Log C (Staphylococcus aureus): 7.93 |
| COC1/C=C/OC2(C)Oc3c(C)c(O)c4c(O)c(cc(OCC(=O)N(C)C5CCCC5)c4c3C2=O)NC(=O)/C(C)=C\C=C\C(C)C(O)C(C)C(O)C(C)C(OC(C)=O)C1C (stereo unspecified) | – | – | – | – | – | -Log C (Streptococcus pyogenes): 8.22; -Log C (Enterococcus faecalis): 7.22; -Log C (Bacillus subtilis): 6.36; -Log C (Staphylococcus aureus): 8.14 |
| O=[N+]([O-])c1cc(Cl)c(O)c2ncccc12 | 0.89 | 2.35 | – | – | – | – |
| Oc1c(F)cc(F)c2cccnc12 | 1.36 | 1.66 | – | – | – | – |
| COC1/C=C/OC2(C)Oc3c(C)c(O)c4c(O)c(cc(OCC(=O)N5CCOCC5C)c4c3C2=O)NC(=O)/C(C)=C\C=C\C(C)C(O)C(C)C(O)C(C)C(OC(C)=O)C1C (stereo unspecified) | – | – | – | – | – | -Log C (Streptococcus pyogenes): 8.36; -Log C (Enterococcus faecalis): 6.22; -Log C (Bacillus subtilis): 6.67; -Log C (Staphylococcus aureus): 7.92 |
| O=[N+]([O-])c1cc(Br)c(O)c2ncccc12 | 1.01 | 2.43 | 0.66 | 1.32 | 1.72 | – |
| COC1/C=C/OC2(C)Oc3c(C)c(O)c4c(O)c(cc(OCC(=O)N(Cc5ccccc5)Cc5ccccc5)c4c3C2=O)NC(=O)/C(C)=C\C=C\C(C)C(O)C(C)C(O)C(C)C(OC(C)=O)C1C (stereo unspecified) | – | – | – | – | – | -Log C (Streptococcus pyogenes): 7.89; -Log C (Enterococcus faecalis): 7.49; -Log C (Bacillus subtilis): 6.89; -Log C (Staphylococcus aureus): 8.49 |
| Oc1c(Cl)ccc2cccnc12 | 1.77 | 2.25 | – | – | – | – |
| Oc1c(Br)ccc2cccnc12 | 1.89 | 2.35 | 1.89 | 2.35 | 2.35 | – |
| Oc1c(Cl)cc(F)c2cccnc12 | 1.82 | 2.3 | 1.7 | 2.29 | 2.29 | – |
| Oc1c(F)cc(I)c2cccnc12 | 2 | 2.46 | 1.46 | 2 | 2.46 | – |
| Nc1cc(Br)c2cccnc2c1O | 0.57 | 1.6 | 0.68 | 0.92 | 0.96 | – |
| Oc1c(F)cc(Cl)c2cccnc12 | 2 | 2.3 | 1.7 | 2.29 | 2.29 | – |
| COC1/C=C/OC2(C)Oc3c(C)c(O)c4c(O)c(cc(OCC(=O)N5CCCCC5C)c4c3C2=O)NC(=O)/C(C)=C\C=C\C(C)C(O)C(C)C(O)C(C)C(OC(C)=O)C1C (stereo unspecified) | – | – | – | – | – | -Log C (Streptococcus pyogenes): 7.92; -Log C (Enterococcus faecalis): 7.45; -Log C (Bacillus subtilis): 6.67; -Log C (Staphylococcus aureus): 8.22 |
| O=[N+]([O-])c1cc(Br)c2cccnc2c1O | 0.62 | 2.43 | 0.66 | 1.13 | 1.13 | – |

| SMILES | -Log C (Aspergillus niger) [mM l-1] | -Log C (Trichophyton benhamiae) [mM l-1] | -Log C (Aspergillus oryzae) | -Log C (Trichoderma viride) | -Log C (Albifimbria verrucaria) | further results |
| --- | --- | --- | --- | --- | --- | --- |
| Oc1c(Cl)cc(Br)c2cccnc12 | 2.11 | 2.41 | 1.82 | 2.41 | 2.41 | – |
| Oc1c(F)cc(Br)c2cccnc12 | 1.92 | 2.39 | 1.62 | 1.92 | 2.39 | – |
| Nc1cc(I)c2cccnc2c1O | 1.15 | 2.21 | 1.03 | 1.21 | 1.51 | – |
| CCN(CCO)C(=O)COc1cc2c(O)c3c(O)c(C)c4c(c13)C(=O)C(C)(O/C=C/C(OC)C(C)C(OC(C)=O)C(C)C(O)C(C)C(O)C(C)/C=C/C=C(/C)C(=O)N2)O4 (stereo unspecified) | – | – | – | – | – | -Log C (Streptococcus pyogenes): 6.96; -Log C (Enterococcus faecalis): 6.18; -Log C (Bacillus subtilis): 5.73; -Log C (Staphylococcus aureus): 7.52 |
| Oc1c(I)cc(F)c2cccnc12 | 2 | 2.46 | 2.62 | 2.46 | 1.16 | – |
| Oc1c(Br)cc(I)c2cccnc12 | 2.07 | 2.24 | 1.85 | 2.24 | 2.24 | – |
| COc1ccccc1C1=NCC(=O)Nc2ccc(Cl)cc21 | – | – | – | – | – | -Log C [1]: 1.6; -Log C [2]: 0.35; -Log C [3]: 0.48; -Log C [4]: 1; -Log C [5]: 0 |
| O=[N+]([O-])c1cc(Cl)c2cccnc2c1O | 1.15 | 1.89 | – | – | – | – |
| O=[N+]([O-])c1ccc2cccnc2c1O | 0.48 | 1.8 | 0.28 | 1.28 | 1.13 | – |
| O=[N+]([O-])c1cc(F)c(O)c2ncccc12 | 0.44 | 2.32 | 0.68 | 1.32 | 1.21 | – |
| COC1/C=C/OC2(C)Oc3c(C)c(O)c4c(O)c(cc(OCC(=O)N5CCOCC5)c4c3C2=O)NC(=O)/C(C)=C\C=C\C(C)C(O)C(C)C(O)C(C)C(OC(C)=O)C1C (stereo unspecified) | – | – | – | – | – | -Log C (Streptococcus pyogenes): 7.26; -Log C (Enterococcus faecalis): 5.84; -Log C (Bacillus subtilis): 5.74; -Log C (Staphylococcus aureus): 6.44 |
| COC1/C=C/OC2(C)Oc3c(C)c(O)c4c(O)c(cc(OCC(=O)N5CCCCCC5)c4c3C2=O)NC(=O)/C(C)=C\C=C\C(C)C(O)C(C)C(O)C(C)C(OC(C)=O)C1C (stereo unspecified) | – | – | – | – | – | -Log C (Streptococcus pyogenes): 7.92; -Log C (Enterococcus faecalis): 7.45; -Log C (Bacillus subtilis): 6.45; -Log C (Staphylococcus aureus): 8.32 |
| Oc1c(I)cc(Br)c2cccnc12 | 2.07 | 2.24 | 1.24 | 1.96 | 2.24 | – |
| Oc1c(Br)cc(F)c2cccnc12 | 1.92 | 2.39 | 1.67 | 2.39 | 2.39 | – |
| Oc1c(I)ccc2cccnc12 | 2.13 | 2.43 | 1.48 | 2.43 | 2.43 | – |
| CCCCN(CCCC)C(=O)COc1cc2c(O)c3c(O)c(C)c4c(c13)C(=O)C(C)(O/C=C/C(OC)C(C)C(OC(C)=O)C(C)C(O)C(C)C(O)C(C)/C=C/C=C(/C)C(=O)N2)O4 (stereo unspecified) | – | – | – | – | – | -Log C (Streptococcus pyogenes): 7.86; -Log C (Enterococcus faecalis): 7.46; -Log C (Bacillus subtilis): 7.16; -Log C (Staphylococcus aureus): 8.46 |
| C#CCN(CCC)C(=O)COc1cc2c(O)c3c(O)c(C)c4c(c13)C(=O)C(C)(O/C=C/C(OC)C(C)C(OC(C)=O)C(C)C(O)C(C)C(O)C(C)/C=C/C=C(/C)C(=O)N2)O4 (stereo unspecified) | – | – | – | – | – | -Log C (Streptococcus pyogenes): 8.62; -Log C (Enterococcus faecalis): 7.14; -Log C (Bacillus subtilis): 6.97; -Log C (Staphylococcus aureus): 8.44 |
| Oc1c(I)cc(Cl)c2cccnc12 [CLIOQUINOL] | 2.01 | 2.01 | – | – | – | – |
